Test results: patent publication US5407956A, “2-amino-1,2,3,4-tetrahydronaphthalene derivatives active on the cardiovascular system, processes for their preparation and pharmaceutical compositions containing them” (Zambon Group S.p.A., priority 1992, dated 1995)
“Also recorded” adds a separate entry of the source. Structures can show the parent of a compound that is named as a salt.

Columns and labels:
[1] = biological target: T1, D1 receptor (Rattus norvegicus, UniProt P18901); experiment: biochemical; conditions: [3H]-SCH23390; rat striatal membranes; Table 2; read-out: Binding D1 rat striatum Ki
Procedure: (§1) The tissues were homogenized in 50 mM Tris/HCl buffer, pH 7.4 (1:100 weight/volume).
(§2) The homogenate was centrifuged and the pellet was resuspended, centrifuged again and resuspended in 50 mM Tris/HCl buffer pH 7.4 containing 120 mM NaCl, 5mM KCl, 2mM CaCl2 and 1 mM MgCl2.

[2] = biological target: T2, D2 receptor (Rattus norvegicus, UniProt P61169); experiment: biochemical; conditions: [3H]-spiperone; rat striatal membranes; Table 2; read-out: Binding D2 rat striatum Ki
Procedure: as §1, §2
The standard incubation conditions (volume 1 ml) for the assay in which [^3 H]-SCH23390 was used were as follows: 50 mM Tris/HCl buffer (pH 7.4), 0.2 nM [^3 H]-SCH23390, a membrane preparation (3 mg/ml corresponding to 130-150 μg proteins/ml), incubation temperature 37° C. and incubation time 15 minutes. The standard incubation conditions (volume 2 ml) for the assay in which [^3 H]-spiperone was used were as follows: 50 mM Tris/HCl buffer (pH 7.4), 0.2 nM [^3 H]-spiperone, a membrane preparation (3 mg/ml corresponding to 130-150 μg proteins/ml), incubation temperature 37° C. and incubation time 15 minutes.

[3] = biological target: T3, DA2 (Oryctolagus cuniculus, UniProt G1T1Q0); experiment: DA2-agonist activity on electrically stimulated rabbit ear artery; conditions: inhibition of contraction induced by electric stimulation; for EC50: read-out: DA2 rabbit ear artery pD2 (-log EC50) (converted)
T3 construct: Transversal sections (2-3 mm) of rabbit ear artery were suspended in isolated organ baths; from tissue; host or cells: rabbit ear artery (transversal sections)
Procedure: DA2 -agonist activity was evaluated as follows. Transversal sections (2-3 mm) of rabbit ear artery were suspended in isolated organ baths containing Krebs-Henseleit solution added with corticosterone (30 μM), desipramine (0.1 μM) and EDTA (10 μM).
The preparation, subjected to a traction of 1 g and to an electric stimulation with field pulses every 5 minutes (10 Hz, 1 msec., 30-60 V, 500 msec. duration) were left stabilize for about 2 hours.
Each preparation was submitted to three increasing concentrations allowing the recovery of the basal conditions before the subsequent administration.

[4] = in words; cited from earlier work
[5] = test system: SHR rats; experiment: In vivo antihypertensive activity, systolic blood pressure by tail cuff in conscious SHR rats; set-up: species or system rat (SHR)
Procedure: Male SHR rats, 3-4 months old, fasted 16 hours before the experiment were used. Systolic blood pressure (SBP) and heart rate (HR) were recorded by tail cuff method in conscious animals by means of a BP Recorder (W+W Basile, Italy). Before every pressure determination animals were maintained at 37° C. for 10 minutes.
SBP and HR values were recorded before and at various times up to seven hours after treatment with the tested compounds.
The compounds were administered orally by gavage, in a volume of 10 ml/kg, at doses between 10 and 160 mg/kg. For the administration, the compounds were suspended in carboxymethylcellulose (CMC) 0.5% in water and additioned with Tween 80 (0.3 ml/10 ml of CMC).
The obtained results, expressed as ED30mmHg (mg/kg p.o.) that is the dose causing a decrease of 30 mmHg from the basal value of SBP (about 15% decrease) are the following: […]

[6] = biological target: T1, D1 receptor; experiment: Receptor binding, D1 receptor, [3H]-SCH23390, rat striatal membranes (part A); set-up: membranes from striatal tissues were prepared; from tissue; host or cells: rat striatum (membranes); species or system rat (Sprague-Dawley); conditions: for Ki: [3H]-SCH23390, rat striatal membranes, Table 1, read-out: Affinity Ki for D1 receptor
[7] = biological target: T2, D2 receptor; experiment: Receptor binding, D2 receptor, [3H]-domperidone, rat striatal membranes (part A); set-up: membranes from striatal tissues were prepared; from tissue; host or cells: rat striatum (membranes); species or system rat (Sprague-Dawley); conditions: for Ki: [3H]-domperidone, rat striatal membranes, Table 1, read-out: Affinity Ki for D2 receptor
Procedure: as §1, §2
For D2 -receptor binding studies [^3 H]-domperidone (0.3 nM) was incubated in a volume of 1000 μl containing buffer and a membrane preparation as above described. In addition bovine serum albumine (BSA) (0.01%) was added. The mixture was incubated at 37° C. for 30 minutes for each concentration of the tested compounds.

[8] = test system: dopaminergic receptors; conditions: in words; cited from earlier work

T3 sequence (G1T1Q0 1-443): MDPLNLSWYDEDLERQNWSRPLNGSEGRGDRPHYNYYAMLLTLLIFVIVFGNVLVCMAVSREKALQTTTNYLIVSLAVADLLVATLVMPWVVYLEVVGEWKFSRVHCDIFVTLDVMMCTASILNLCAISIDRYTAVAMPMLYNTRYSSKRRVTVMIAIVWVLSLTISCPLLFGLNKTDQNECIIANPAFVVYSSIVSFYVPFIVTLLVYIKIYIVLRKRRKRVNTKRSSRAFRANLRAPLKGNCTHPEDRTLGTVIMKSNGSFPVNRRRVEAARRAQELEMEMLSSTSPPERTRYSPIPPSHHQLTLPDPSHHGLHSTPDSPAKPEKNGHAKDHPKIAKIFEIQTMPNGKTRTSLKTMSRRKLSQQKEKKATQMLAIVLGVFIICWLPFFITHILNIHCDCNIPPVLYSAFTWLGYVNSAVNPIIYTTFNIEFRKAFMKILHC
T2 sequence (P61169 whole entry): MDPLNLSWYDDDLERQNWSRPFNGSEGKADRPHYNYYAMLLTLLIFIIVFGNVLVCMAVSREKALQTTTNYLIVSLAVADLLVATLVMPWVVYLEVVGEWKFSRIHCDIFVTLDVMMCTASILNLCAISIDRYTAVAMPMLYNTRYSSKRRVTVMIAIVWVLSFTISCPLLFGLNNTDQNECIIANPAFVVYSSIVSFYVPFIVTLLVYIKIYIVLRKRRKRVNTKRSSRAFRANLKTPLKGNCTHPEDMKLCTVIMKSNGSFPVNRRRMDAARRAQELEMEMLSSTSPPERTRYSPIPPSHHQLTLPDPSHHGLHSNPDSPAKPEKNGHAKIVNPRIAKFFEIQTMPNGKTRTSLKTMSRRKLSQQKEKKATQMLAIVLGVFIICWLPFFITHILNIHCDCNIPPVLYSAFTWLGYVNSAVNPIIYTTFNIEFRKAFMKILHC
T1 sequence (P18901 whole entry): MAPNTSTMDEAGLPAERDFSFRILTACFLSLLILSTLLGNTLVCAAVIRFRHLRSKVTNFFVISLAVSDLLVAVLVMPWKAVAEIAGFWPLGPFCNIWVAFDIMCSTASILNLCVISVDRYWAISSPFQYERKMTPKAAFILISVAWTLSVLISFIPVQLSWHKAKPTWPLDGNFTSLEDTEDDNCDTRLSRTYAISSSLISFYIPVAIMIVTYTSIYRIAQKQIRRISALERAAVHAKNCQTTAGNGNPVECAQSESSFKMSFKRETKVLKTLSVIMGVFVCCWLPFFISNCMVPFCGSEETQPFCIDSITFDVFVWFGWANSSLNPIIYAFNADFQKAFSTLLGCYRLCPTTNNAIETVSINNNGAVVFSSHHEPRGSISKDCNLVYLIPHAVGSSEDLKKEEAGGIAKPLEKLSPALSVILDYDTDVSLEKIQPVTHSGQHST

SMILES	Ki [1]	Ki [2]	EC50 [3]	other results
CCCN(CCCNCCOc1ccccc1Cl)[C@@H]1CCc2cc(O)c(O)cc2C1 [Compound 8, (R)-N-propyl-N-[3-[2-[(2-chlorophenoxy)ethylamino]propyl]-6,7-dihydroxy-1,2,3,4-tetrahydro-2-naphthylaminedihydrochloride]	2650 nM	16 nM	44.7 nM	
CCCN(CCCN(C)CCOc1ccccc1OC)[C@H]1CCc2c(ccc(O)c2O)C1 [Compound 13, (S)-N-propyl-N-[2-(5,6-dihydroxy-1,2,3,4-tetrahydro)naphthyl]-N'-methyl-N'-[2-(2-methoxyphenoxy)ethyl]-1,3-propanediamine dihydrochloride]	3600 nM	9.8 nM	4.07 nM	
CCCN(CCCCCCN(C)CCOc1ccc(C)cc1Cl)[C@H]1CCc2c(ccc(O)c2O)C1 [Compound 12, (S)-N-[2-(5,6-dihydroxy-1,2,3,4-tetrahydro)naphthyl]-N-propyl-N'-methyl-N'-[2-[(2-chloro-4-methyl]phenoxyl]ethyl]-1,6-hexanediamine dihydrochloride]	180 nM	8.3 nM	457 nM	
CCCN(CCCCCCN(C)CCOc1ccccc1OC)[C@H]1CCc2c(ccc(O)c2O)C1 [Compound 10, (S)-N-[2-(5,6-dihydroxy-1,2,3,4-tetrahydro)naphthyl]-N-propyl-N'-methyl-N'-[2-(2-methoxyphenoxy)ethyl]-1,6-hexanediamine dihychloride]	410 nM	5.5 nM	3.39 nM	
CCCCN(CCCCCCNCCOc1ccccc1Cl)[C@H]1CCc2c(ccc(O)c2O)C1 [Compound 4, (S)-N-butyl-N-[6-[2-2-(chlorophenoxy)ethylamino]hexyl]-5,6-dihydroxy-1,2,3,4-tetrahydro-2-naphthylamine dihydrochloride]	700 nM	80 nM	513 nM	
CCCCN(CCCN(C)CCOc1ccc(C)cc1Cl)[C@@H]1CCc2cc(O)c(O)cc2C1 [Compound 14, (R)-N-butyl-N-[2-(6.,7-dihydroxy-l,2,3,4-tetrahydro)naphthyl]-N'-methyl-N'-[2-[(2-chloro-4-methyl)phenoxy]ethyl]-1.3-propanediamine dihydrochloride]	2800 nM	260 nM	6030 nM	
CCCCN(CCCNCCOc1ccc(C)cc1OC)[C@H]1CCc2c(ccc(O)c2O)C1 [Compound 9, (S)-N-butyl-N-[3-[2-[(2-methoxy-4-methyl)phenoxy]ethylamino]propyl]-5,6-dihydroxyl-1,2,3,4-teyrahydro-2-naphthylamine dihydrochloride]	22000 nM	190 nM	1050 nM	
NCCc1ccc(O)c(O)c1 [Dopamine, dopamine]				DA2 rabbit ear artery pD2 (-log EC50) [3]: 7.40; Oral absorption (literature) [4]: lack of absorption by opal route; also recorded: not absorbed when administered by oral route
CCCCN(CCCCCCNCCOc1ccccc1OC)[C@H]1CCc2c(ccc(O)c2O)C1 [Compound 3, (S)-N-butyl-N-[6-[2-(2-methoxyphenoxy)ethylamino]hexyl]-5,6-dihydroxy-1,2,3,4-tetrahydro-2-naphthylamine dihydrochloride]	560 nM	86 nM	29.5 nM	
CCCN(CCCCCCNCCOc1ccc(C)cc1Cl)[C@H]1CCc2c(ccc(O)c2O)C1 [Compound 5, (S)-N-propyl-N-[6-[2-[(2-chloro-4-methyl)phenoxy]ethylamino]-hexyl]-5,6-dihydroxy-1,2,3,4-tetrahydro-2-naphthylamine dihydrochloride]	120 nM	5 nM	6.92 nM	
CCCCN(CCCCCCN(C)CCOc1ccccc1OC)[C@@H]1CCc2cc(O)c(O)cc2C1 [Compound 11, (R)-N-butyl-N-[2-(6,7-dihydroxy-1,2,3,4-tetrahydro)naphthyl]-N'-methyl-N'-[2-(2-methoxyphenoxy)ethyl]-1,6-hexanediamine dihydrochloride]	11700 nM	630 nM	1350 nM	
CCCN(CCCCCCNCCOc1ccccc1OC)[C@H]1CCc2c(ccc(O)c2O)C1 [Compound 1, S-(-)-N-propyl-N-[6-(2-(2-methoxyphenoxy)ethylamino]hexyl]-5,6-dihydroxy-1,2,3,4-tetrahydro-2-naphthylamine dihydrchloride]	90 nM	0.5 nM	1.07 nM	ED (30 mmHg) ([5]; Rattus norvegicus, oral gavage, about 15% decrease of SBP, read-out: ED30mmHg, dose causing a decrease of 30 mmHg from the basal value of SBP): 22.9 mg/kg; Duration of the antihypertensive effect ([5]; oral): about 4 hours; Ki [6]: 195 nM; Potency on D1 receptors, times more potent than dopamine and dopexamine ([6]; vs dopamine and dopexamine): about 10 times; Ki [7]: 4 nM; Potency on D2 receptors, times more potent than dopamine and dopexamine ([7]; vs dopamine and dopexamine): about 100 times
CCCN(CCCCCCNCCOc1ccccc1OC)[C@@H]1CCc2cc(O)c(O)cc2C1 [Compound 2, (R)-N-propyl-N-[6-[2-(2-methoxyphenoxy)ethylamino]hexyl]-6,7-dihydroxyl-1,2,3,4-tetrahydro-2-naphthylamino dihydrochloride]	315 nM	8.4 nM	4.37 nM	
CCCN(CCCNCCOc1ccccc1OC)[C@H]1CCc2c(ccc(O)c2O)C1 [Compound 7, (S)-N-propyl-N-[3-[2-[(2-methoxyphenoxy)ethylamino]propyl]-5,6-dihydroxy-1,2,3,4-tetrahydro-2-naphthylaminedihydrochloride]	1100 nM	1.1 nM	2.14 nM	
Oc1ccc(CCNCCCCCCNCCc2ccccc2)cc1O [Dopexamine, dopexamine, reference compound]	3200 nM	1700 nM	447 nM	Oral absorption (literature) [4]: not absorbed when administered by oral route; Agonist activity on dopaminergic receptors relative to dopamine [8]: less active than dopamine; Ki [6]: 2230 nM; Ki [7]: 145 nM
